Measurements: ChEMBL document CHEMBL5696442, “Discovery of type II inhibitors of TGFβ-activated kinase 1 (TAK1) and mitogen-activated protein kinase kinase kinase kinase 2 (MAP4K2)” (J Med Chem, 2015)

Tests used:
[1] = molecular target: Dual specificity mitogen-activated protein kinase kinase 2 (Homo sapiens) (UniProt P36507); assay: Inhibition of MAP2K2 Lys2 labeling site in human A-375 cells at 5 uM by KiNativ Profiling analysis relative to control; type: cell-based
[2] = molecular target: Microtubule-associated serine/threonine-protein kinase 1 (Homo sapiens) (UniProt Q9Y2H9); assay: Inhibition of MAST1 Lys2 labeling site in human A-375 cells at 0.5 uM by KiNativ Profiling analysis relative to control
Chain of Microtubule-associated serine/threonine-protein kinase 1 (Homo sapiens) (Q9Y2H9 whole entry, looked up): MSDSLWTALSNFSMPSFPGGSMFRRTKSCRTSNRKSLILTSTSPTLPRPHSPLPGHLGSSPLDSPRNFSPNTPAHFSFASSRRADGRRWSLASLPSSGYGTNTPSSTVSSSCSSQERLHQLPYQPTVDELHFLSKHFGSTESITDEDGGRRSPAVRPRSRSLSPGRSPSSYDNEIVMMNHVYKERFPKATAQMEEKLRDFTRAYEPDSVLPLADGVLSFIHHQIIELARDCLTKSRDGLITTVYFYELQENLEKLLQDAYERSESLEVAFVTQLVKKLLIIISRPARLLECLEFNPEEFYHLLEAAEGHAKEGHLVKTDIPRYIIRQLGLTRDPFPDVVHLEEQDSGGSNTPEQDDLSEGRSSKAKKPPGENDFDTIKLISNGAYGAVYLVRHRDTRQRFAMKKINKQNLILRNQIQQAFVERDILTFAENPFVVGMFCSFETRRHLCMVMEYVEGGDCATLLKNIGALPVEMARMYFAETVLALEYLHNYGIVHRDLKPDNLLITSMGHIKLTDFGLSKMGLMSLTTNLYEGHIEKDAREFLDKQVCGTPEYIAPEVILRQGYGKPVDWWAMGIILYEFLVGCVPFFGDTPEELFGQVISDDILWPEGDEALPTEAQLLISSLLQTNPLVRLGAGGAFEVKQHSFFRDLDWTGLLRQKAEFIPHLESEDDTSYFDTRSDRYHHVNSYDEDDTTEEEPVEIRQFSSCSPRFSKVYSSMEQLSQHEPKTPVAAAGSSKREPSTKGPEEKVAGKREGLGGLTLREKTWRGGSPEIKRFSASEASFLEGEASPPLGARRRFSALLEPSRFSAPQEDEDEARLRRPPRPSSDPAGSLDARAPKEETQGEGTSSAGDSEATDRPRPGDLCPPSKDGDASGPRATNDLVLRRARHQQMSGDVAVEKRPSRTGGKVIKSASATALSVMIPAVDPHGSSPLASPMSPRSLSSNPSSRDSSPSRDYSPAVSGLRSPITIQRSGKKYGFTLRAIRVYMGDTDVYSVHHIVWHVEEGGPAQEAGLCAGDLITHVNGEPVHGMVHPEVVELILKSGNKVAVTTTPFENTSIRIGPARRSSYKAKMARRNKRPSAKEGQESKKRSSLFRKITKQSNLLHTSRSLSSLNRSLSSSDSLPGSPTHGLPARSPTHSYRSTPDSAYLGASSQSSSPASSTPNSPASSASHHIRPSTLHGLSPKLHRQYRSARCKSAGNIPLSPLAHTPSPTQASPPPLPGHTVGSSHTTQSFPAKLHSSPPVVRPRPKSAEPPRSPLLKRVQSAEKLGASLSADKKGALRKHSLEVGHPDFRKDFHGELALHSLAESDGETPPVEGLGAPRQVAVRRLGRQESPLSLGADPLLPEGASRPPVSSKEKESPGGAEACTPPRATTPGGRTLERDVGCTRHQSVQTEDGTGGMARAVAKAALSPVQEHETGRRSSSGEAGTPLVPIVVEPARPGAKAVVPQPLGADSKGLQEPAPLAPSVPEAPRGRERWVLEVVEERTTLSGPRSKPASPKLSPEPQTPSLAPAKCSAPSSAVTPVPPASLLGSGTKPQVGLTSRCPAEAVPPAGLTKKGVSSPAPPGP

[3] = molecular target: T1, Inhibitor of nuclear factor kappa-B kinase subunit epsilon (Homo sapiens) (UniProt Q14164); assay: Inhibition of IKKe K2 labeling site in human Huh-7 cells at 10 uM by KiNativ Profiling analysis relative to control; type: cell-based
T1 sequence (whole entry): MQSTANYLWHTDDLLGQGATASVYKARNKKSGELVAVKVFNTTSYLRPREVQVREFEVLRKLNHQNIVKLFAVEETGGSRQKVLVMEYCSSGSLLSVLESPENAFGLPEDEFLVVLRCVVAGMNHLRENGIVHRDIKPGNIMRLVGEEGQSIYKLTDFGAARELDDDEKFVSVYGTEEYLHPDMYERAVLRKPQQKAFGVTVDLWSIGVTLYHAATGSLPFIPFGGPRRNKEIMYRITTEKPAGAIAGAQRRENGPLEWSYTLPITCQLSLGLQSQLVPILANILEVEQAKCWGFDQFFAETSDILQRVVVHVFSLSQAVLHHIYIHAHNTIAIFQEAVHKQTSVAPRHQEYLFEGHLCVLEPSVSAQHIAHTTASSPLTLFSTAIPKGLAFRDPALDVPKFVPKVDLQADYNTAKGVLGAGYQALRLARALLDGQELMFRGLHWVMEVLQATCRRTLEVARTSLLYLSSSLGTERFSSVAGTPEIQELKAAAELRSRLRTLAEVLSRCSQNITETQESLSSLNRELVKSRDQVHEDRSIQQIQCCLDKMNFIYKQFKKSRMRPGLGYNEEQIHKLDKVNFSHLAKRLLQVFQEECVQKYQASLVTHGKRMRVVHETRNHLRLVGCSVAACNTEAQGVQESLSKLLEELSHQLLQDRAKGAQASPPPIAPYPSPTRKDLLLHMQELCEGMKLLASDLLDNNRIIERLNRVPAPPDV

[4] = molecular target: Calcium/calmodulin-dependent protein kinase type II subunit gamma (Homo sapiens) (UniProt Q13555); assay: Inhibition of CaMK2g Lys1 labeling site harbouring TSTQEYAAKIINTKK in human Huh-7 cells at 1 uM by KiNativ Profiling analysis relative to control; type: cell-based
Chain of Calcium/calmodulin-dependent protein kinase type II subunit gamma (Homo sapiens) (Q13555 whole entry): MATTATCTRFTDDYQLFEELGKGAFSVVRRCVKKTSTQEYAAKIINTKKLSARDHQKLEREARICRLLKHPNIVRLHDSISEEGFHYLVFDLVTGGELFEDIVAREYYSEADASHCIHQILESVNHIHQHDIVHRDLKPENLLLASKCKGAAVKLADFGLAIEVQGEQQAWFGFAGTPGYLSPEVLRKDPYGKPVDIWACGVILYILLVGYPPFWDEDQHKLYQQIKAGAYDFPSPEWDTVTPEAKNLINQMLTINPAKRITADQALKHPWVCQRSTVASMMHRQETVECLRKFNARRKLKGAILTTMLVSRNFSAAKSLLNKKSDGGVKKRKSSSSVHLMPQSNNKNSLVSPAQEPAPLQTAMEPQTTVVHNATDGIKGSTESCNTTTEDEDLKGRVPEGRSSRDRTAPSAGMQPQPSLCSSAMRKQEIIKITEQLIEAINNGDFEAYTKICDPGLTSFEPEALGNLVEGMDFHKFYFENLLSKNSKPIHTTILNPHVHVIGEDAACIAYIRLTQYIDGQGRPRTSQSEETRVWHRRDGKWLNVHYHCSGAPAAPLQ

[5] = molecular target: T2, Receptor-interacting serine/threonine-protein kinase 4 (Homo sapiens) (UniProt P57078); assay: Inhibition of RIPK4 (unknown origin) at 1 uM by Ambit Kinomescan binding assay relative to control
T2 sequence (whole entry): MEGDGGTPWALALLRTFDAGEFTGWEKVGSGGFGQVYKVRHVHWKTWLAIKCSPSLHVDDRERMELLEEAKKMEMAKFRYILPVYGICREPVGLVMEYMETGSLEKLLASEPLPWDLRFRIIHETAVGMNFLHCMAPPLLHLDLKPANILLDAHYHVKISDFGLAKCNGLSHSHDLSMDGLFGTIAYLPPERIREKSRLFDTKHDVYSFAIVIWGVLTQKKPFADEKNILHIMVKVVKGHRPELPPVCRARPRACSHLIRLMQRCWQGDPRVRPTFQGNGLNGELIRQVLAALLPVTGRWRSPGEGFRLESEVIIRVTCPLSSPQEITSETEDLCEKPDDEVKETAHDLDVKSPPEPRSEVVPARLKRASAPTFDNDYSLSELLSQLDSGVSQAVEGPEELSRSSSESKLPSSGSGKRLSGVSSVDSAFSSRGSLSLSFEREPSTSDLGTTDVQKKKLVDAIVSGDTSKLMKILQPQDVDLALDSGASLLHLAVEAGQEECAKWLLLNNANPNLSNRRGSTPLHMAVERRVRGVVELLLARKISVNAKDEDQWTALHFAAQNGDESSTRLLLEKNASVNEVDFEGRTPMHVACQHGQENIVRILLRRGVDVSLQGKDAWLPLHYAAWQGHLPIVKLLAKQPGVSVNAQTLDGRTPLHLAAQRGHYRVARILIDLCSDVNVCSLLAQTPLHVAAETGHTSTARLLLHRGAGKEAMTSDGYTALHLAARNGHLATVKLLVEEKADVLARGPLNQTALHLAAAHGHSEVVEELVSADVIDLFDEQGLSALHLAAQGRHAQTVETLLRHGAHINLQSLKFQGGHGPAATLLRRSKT

[6] = molecular target: T3, Serine/threonine-protein kinase D2 (Homo sapiens) (UniProt Q9BZL6); assay: Inhibition of PKD2 Lys1 labeling site in human A-375 cells at 5 uM by KiNativ Profiling analysis relative to control; type: cell-based
T3 sequence (whole entry): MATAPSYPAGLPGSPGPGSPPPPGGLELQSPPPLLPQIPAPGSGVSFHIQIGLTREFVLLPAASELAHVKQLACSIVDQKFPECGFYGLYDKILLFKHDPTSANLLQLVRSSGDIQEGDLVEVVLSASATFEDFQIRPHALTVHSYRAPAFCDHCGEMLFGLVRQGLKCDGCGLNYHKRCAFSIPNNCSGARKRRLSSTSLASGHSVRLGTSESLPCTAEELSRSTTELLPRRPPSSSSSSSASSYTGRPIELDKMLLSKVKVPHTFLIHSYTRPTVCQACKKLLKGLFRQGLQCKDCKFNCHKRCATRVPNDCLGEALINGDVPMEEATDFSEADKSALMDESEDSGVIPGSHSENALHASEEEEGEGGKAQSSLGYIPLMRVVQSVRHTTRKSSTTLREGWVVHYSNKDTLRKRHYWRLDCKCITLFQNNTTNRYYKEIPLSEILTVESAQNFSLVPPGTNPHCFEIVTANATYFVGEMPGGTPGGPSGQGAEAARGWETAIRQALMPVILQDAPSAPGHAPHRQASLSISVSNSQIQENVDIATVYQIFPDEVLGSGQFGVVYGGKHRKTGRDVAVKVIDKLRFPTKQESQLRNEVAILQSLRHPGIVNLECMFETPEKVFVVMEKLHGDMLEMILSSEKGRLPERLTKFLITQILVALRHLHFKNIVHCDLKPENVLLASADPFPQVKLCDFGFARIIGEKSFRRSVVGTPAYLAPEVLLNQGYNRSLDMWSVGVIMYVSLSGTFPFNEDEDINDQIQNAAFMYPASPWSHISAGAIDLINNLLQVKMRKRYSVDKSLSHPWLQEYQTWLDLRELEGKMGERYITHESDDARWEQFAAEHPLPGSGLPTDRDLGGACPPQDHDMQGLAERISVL

Chain of Dual specificity mitogen-activated protein kinase kinase 2 (Homo sapiens) (P36507 whole entry): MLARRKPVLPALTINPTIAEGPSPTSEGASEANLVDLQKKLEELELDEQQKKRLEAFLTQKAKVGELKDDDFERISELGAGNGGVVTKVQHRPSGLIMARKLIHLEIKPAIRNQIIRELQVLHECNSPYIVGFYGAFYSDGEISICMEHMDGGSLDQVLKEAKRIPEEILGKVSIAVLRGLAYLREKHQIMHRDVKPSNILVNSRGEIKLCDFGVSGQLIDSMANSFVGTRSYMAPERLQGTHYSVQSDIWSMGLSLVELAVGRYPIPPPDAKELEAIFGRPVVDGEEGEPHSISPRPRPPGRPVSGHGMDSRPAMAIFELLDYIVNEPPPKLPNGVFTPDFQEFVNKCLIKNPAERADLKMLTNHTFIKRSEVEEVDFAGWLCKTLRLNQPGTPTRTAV

`CCN1CCN(Cc2ccc(NC(=O)c3ccc(C)c(Oc4ccnc5[nH]ccc45)c3)cc2C(F)(F)F)CC1` showed an inhibition [1] of -10%, an inhibition [2] of 16.1% and an inhibition [3] of 8.4%.

Molecule `CNc1cc(Oc2cc(C(=O)Nc3cc(N4CCN(C)CC4)cc(C(F)(F)F)c3)ccc2C)ncn1` has an inhibition [4] of 31.8%.

In the case of `CCN1CCN(Cc2ccc(NC(=O)c3ccc(C)c(/C=C/c4cnc5[nH]ccc5c4OC)c3)cc2C(F)(F)F)CC1`, the inhibition [5] is reported as 100% and the inhibition [6] is reported as 2.1%.
